Test results: paper PMC8942850, “Boron clusters as broadband membrane carriers” (Nature, 2022)

Columns and labels:
[1] = system: Escherichia coli Top10 strain; assay: Kanamycin A delivery in E. coli (OD570 growth); format: cell-based; conditions: incubation with the cluster alone, up to 1 mM
Protocol: As a proof-of-principle, we investigated its potential to reduce the minimum inhibitory concentration of kanamycin A, an aminoglycoside antibiotic. Aminoglycosides function by binding to the bacterial 30S ribosomal subunit; consequently, effective passage through the cell wall and plasma membrane is essential for aminoglycosides to reach their intracellular targets. […]
A preculture of E. coli Top10 cells was incubated overnight in LB medium with 50 µg ml^−1 streptomycin sulfate. […] After 18 h, the optical density at 570 nm, as an indicator of bacterial growth, was measured with a Tecan Infinite F200Pro microplate reader. Data were normalized for each concentration of B12Br12^2− relative to the control condition without antibiotic.
Solid points indicate mean ± s.d. of three technical replicates. […] Cross-bars indicate mean ± s.d. of three independent experiments (two with technical triplicates, one with technical duplicates); values obtained in each experiment are represented by different shapes. c, Viability of HeLa cells after incubation with different doses of MMAF in the presence of 0, 5 and 10 μM B12Br12^2−. Solid points indicate mean ± s.d. of three technical replicates. d, Corresponding IC50 values of MMAF. […] Source data

[2] = HPTS/DPX transport assay in zwitterionic EYPC vesicles; format: in vitro ADME; conditions: for Y Conventional / Y Reverse: Extended Data Fig. 4d; for Ymax (%) maximal activity, carrier activity: 13 µM lipid, 10 mM Tris, 107 mM NaCl, HPTS fluorescence
Protocol: The well-established HPTS/DPX assay, which uses 8-hydroxypyrene-1,3,6-trisulfonate (HPTS) and p-xylene-bis-pyridinium (DPX), was implemented to monitor peptide-transport activation (Fig. 2a). […] A surfactant (Triton X-100) was added at the end of the experiment (t = 600 s) to release all vesicle content and normalize the fluorescence intensity data.
Fig. 2 Carrier activity obtained from the HPTS/DPX assay. a, Schematic representation of the transport of otherwise impermeable analytes facilitated by superchaotropic cluster anions with encapsulated HPTS/DPX probe/quencher pair used for signalling. […] Concentrations of carrier and cargo, when fixed, were 40 and 20 µM, respectively, unless explicitly stated. Source data
A thin lipid film was prepared by evaporating a lipid solution with a stream of nitrogen and then dried in vacuo overnight.
Fluorescence intensities were normalized to fractional emission as I(t) = (It − I0)/(I∞ − I0), where I0 = It before cluster addition and I∞ = It after lysis.
In the activator measurements, in which different activators were tested with the same cargo, the activator efficiency (Ea) is determined from their ability to activate the transport of an impermeable cargo molecule and is characterized by Ymax, its maximal activity, and EC50, the effective activator concentration. A potent activator reaches high Ymax at low EC50. To reflect both factors, the activator efficiency is defined as Ea = Ymax × (pEC50/fa), where pEC50 is the negative logarithm of EC50.
In the transport measurements, in which different types of cargo were tested with the same activator, the transport efficiency (Et) reports on the sensitivity of the cargo for being transported and is described by Ymax, the maximal activity, and EC50, the effective cargo concentration. An easily accessible cargo reaches high Ymax at low EC50. The transport efficiency is defined as a composition of both parameters according to Et = Ymax × (pEC50/ft), where pEC50 is the negative logarithm of EC50.
Extended Data Fig. 3 Transport activity. a, Transport activity, Y, in EYPC⊃HPTS/DPX vesicles as a function of cluster concentration at constant cargo concentration (WR7, 20 µM). b, Transport activity, Y, for B12Br12^2− (40 µM) in EYPC⊃HPTS/DPX vesicles as a function of the concentration of different cargo types; red lines correspond to the resulting fit with the Hill equation. Source data

HeLa cells = assay: Cytosolic TAMRA-R8 concentration (digitonin fractionation, fluorescence); format: cell-based; conditions: Extended Data Fig.5d; for concentration_uM, mean: mean of 4 experiments
Protocol: Cytosolic extracts were obtained according to a previously described protocol[55] by incubation with digitonin, a steroidal saponin that preferentially permeabilizes cholesterol-rich membranes, such as the plasma membrane, with minor effects on intracellular membranes. […] Cells were incubated on ice with 600 µl of 35 µg ml^−1 digitonin in PBS Ca/Mg for 10 min, the supernatant with the cytosolic fraction collected and cells washed with 200 µl of PBS Ca/Mg, combining this supernatant with the previous extract. The non-cytosolic fraction was collected by incubation of the cells with 800 µl of 1% Triton X-100 in PBS. […] For the complementary HPLC analysis, phosphate buffer was replaced by TBS (20 mM Tris–HCl, pH 7.2, 150 mM NaCl, 0.5 mM CaCl2, 0.5 mM MgCl2) and digitonin extraction was performed as indicated above. An aliquot of these extracts was used for β-hexosaminidase activity determination. Cytosolic extracts were lyophilized and resuspended in 1:10 volumes of H2O:CH3CN 1:1 with 1% TFA, and analysed by HPLC (RP-HPLC Agilent Luna 5U C18 100 Å, H2O (0.1% TFA)/CH3CN (0.1% TFA) 100:0 (0→5 min); 100:0→5:95 (5→20 min)) by monitoring the 555-nm absorbance of the TAMRA chromophore.
The quality of fractionation was assessed by lysosomal β-hexosaminidase activity, using 4-nitrophenyl 2-acetamido-2-deoxy-β-D-glucopyranoside as substrate. Briefly, 20 µl of extract was incubated with 80 µl of 7.5 mM substrate in 100 mM citrate buffer, pH 4.7, for 40 min at 37 °C, and the reaction was stopped by addition of 200 µl of 0.2 M Tris solution. Absorbance at 405 nm was measured in a plate reader. As blank, wells containing only the substrate were used. […]

Substance: B12Br12^2−
- Bacterial survival, cluster alone [1]: did not affect bacterial survival
- Ea activator efficiency ([2]; Ea = Ymax × (pEC50/fa), fa = 20.6, WR7 (20 μM) cargo, 10% error (SD)): 6.1
- Y Conventional ([2]; [B12Br12] 1.00E-04 M): 0.7375
- Y Reverse ([2]; [B12Br12] 1.00E-04 M): 0.7289
- Y Conventional ([2]; [B12Br12] 1.00E-05 M): 0.08156
- Y Reverse ([2]; [B12Br12] 1.00E-05 M): 0.07644
- Y Conventional ([2]; [B12Br12] 1.00E-08 M): 0.00214
- Y Reverse ([2]; [B12Br12] 1.00E-08 M): 9.09E-04
- Y Conventional ([2]; [B12Br12] 1.20E-04 M): 0.8093
- Y Reverse ([2]; [B12Br12] 1.20E-04 M): 0.8173
- Y Conventional ([2]; [B12Br12] 1.50E-04 M): 0.8756
- Y Conventional ([2]; [B12Br12] 2.00E-05 M): 0.1885
- Y Reverse ([2]; [B12Br12] 2.00E-05 M): 0.1615
- Y Conventional ([2]; [B12Br12] 2.50E-04 M): 0.8813
- Y Reverse ([2]; [B12Br12] 2.50E-04 M): 0.8905
- Y Conventional ([2]; [B12Br12] 3.00E-05 M): 0.3307
- Y Reverse ([2]; [B12Br12] 3.00E-05 M): 0.3469
- Y Conventional ([2]; [B12Br12] 4.00E-05 M): 0.4335
- Y Conventional ([2]; [B12Br12] 5.00E-06 M): 0.03975
- Y Conventional ([2]; [B12Br12] 6.00E-05 M): 0.5294
- Y Reverse ([2]; [B12Br12] 6.00E-05 M): 0.5266
- Y Conventional ([2]; [B12Br12] 8.00E-05 M): 0.6371
- Ymax (%) maximal activity, carrier activity ([2]; carrier concentration varied, WR7 (20 μM) as common cargo, EYPC⊃HPTS/DPX vesicles, pH 7.4, Hill analysis, 10% error (SD) unless stated, n.a. = no detectable activity, d.l. = dye leakage, no determination possible): 95 ± 5%
- Ymax (%) maximal activity, carrier activity ([2]; carrier concentration varied, WR7 (20 μM) as common cargo, EYPC⊃HPTS/DPX vesicles, pH 7.4, Hill analysis, 10% error (SD) unless stated, n.a. = no detectable activity, d.l. = dye leakage, no determination possible, listed as brominated cluster): 95%
- EC50 ([2]; read-out: EC50 (μM) effective carrier concentration to reach 50% of Ymax, carrier concentration varied, WR7 (20 μM) as common cargo, EYPC⊃HPTS/DPX vesicles, pH 7.4, Hill analysis, 10% error (SD) unless stated, n.a. = no detectable activity, d.l. = dye leakage, no determination possible): 48 µM
- concentration_uM (HeLa cells; 0 uM B12Br12 (no carrier), experiment 1): 0.2863 µM
- concentration_uM (HeLa cells; 0 uM B12Br12 (no carrier), experiment 2): 0.345 µM
- concentration_uM (HeLa cells; 0 uM B12Br12 (no carrier), experiment 3): 0.2743 µM
- concentration_uM (HeLa cells; 0 uM B12Br12 (no carrier), experiment 4): 0.3423 µM
- concentration_uM, mean (HeLa cells; 0 uM B12Br12 (no carrier)): 0.312 µM
- concentration_uM (HeLa cells; 10 uM B12Br12, experiment 1): 1.393 µM
- concentration_uM (HeLa cells; 10 uM B12Br12, experiment 2): 1.647 µM
- concentration_uM (HeLa cells; 10 uM B12Br12, experiment 3): 1.247 µM
- concentration_uM (HeLa cells; 10 uM B12Br12, experiment 4): 1.117 µM
- concentration_uM, mean (HeLa cells; 10 uM B12Br12): 1.351 µM
